Data on five molecules can be found in publication PMC7835950 (Frontiers in Chemistry, 2021).

Values joined by “and” are separate entries in the source; they are usually repeats but may differ in a detail not shown here. Identical values can stand only once.

The nature of data set [1]: Stability of the phosphonates and their esters during storage, by NMR. Conditions: for decrease of purity: pure oil, room temperature, argon atmosphere, 6 months. The data set is classed as physicochemical. On the procedure:
Stability of the purified phosphonates and their esterified precursor was analyzed by NMR after storage under the inert (pure argon) or ambient (air) atmosphere and in water solutions. ^1H, ^13C and ^31P NMR spectra were recorded at 400, 100.6, and 161.9 MHz, respectively with a Bruker Avance 400 spectrometer. Chemical shifts were calculated using D2O or CDCl3 as reference standards for trisodium salts and triesters, respectively. The spectra of the phosphonates and their esters before and after storage are shown in Supplementary Figures 1, 2 correspondingly.

Substrate in data set [2]: O=C(O)CCCC(=O)C(=O)O
The experiment in a line: OADH reaction (OA saturation) catalyzed by the enzyme preparation from rat heart. The following applies: other: heart preparation; pH 7.0. Format: biochemical. On the procedure: (§1) Enzymes catalyzing OGDH and OADH reactions were enriched from rat hearts and livers using polyethylene glycol precipitation, as previously described (Artiukhov et al., [2020]).
(§2) The enzyme activities were assayed in the medium (pH 7.0) containing 50 mM MOPS, 1 mM ThDP, 1 mM MgCl2, 1 mM CaCl2, 1 mM dithiothreitol 0.15 mM Coenzyme A, 0.25 mM NAD^+ and various concentrations of 2-oxo substrates (0–10 mM OG or OA) and their phosphonate analogs (0–5,000 μM SP, GP, or AP). Reactions were started by addition of the enzyme preparations to the assay media. The amount of enzyme preparations (0.074 mg protein for the preparation from liver and 0.023 mg protein for the preparation from heart) were chosen to induce the lowest reliably measured reaction rate (ΔA340 = 0.001/min) at 0.01 mM OA without the phosphonates.
(§3) Reaction rates were calculated from linear parts of the product accumulation curves (up to 10 min, dependent on the reaction rate), excluding the initial region, where mixing the reagents and solubilization of the preparation affected the optical density. […]
(§4) The kinetic data were also analyzed by linear regression, using the known methods of the linearization of the Michaelis-Menten equation in the Lineweaver-Burk ( 1/a=1/Amax(1+Km/[S]) ) and Eadie-Hofstee ( a=Amax−Kmv/[S] ) coordinates. […]

Substrate in data set [3]: O=C(O)CCCC(=O)C(=O)O
Description: OADH reaction catalyzed by the enzyme preparation from rat liver, high [OA] (low-affinity OA sites). The data set is classed as biochemical. Conditions: other: liver preparation, pH 7.0. Here is the method:
as §1, §2, §3, §4

Substrate in data set [4]: O=C(O)CCC(=O)C(=O)O
The experiment in a line: purified protein, by the assay type. Conditions: pH 7.0.

Substrate in data set [5]: O=C(O)CCCC(=O)C(=O)O
Description: OADH reaction catalyzed by the enzyme preparation from rat liver, low [OA] (high-affinity OA sites). The data set is classed as biochemical. Conditions: other: liver preparation, pH 7.0. On the procedure:
as §1, §2, §3, §4

[6] abbreviates: 0.2 M aqueous solution, 5 days of shelf storage, 31P NMR.

On to `CCOC(=O)CCC(=O)P(=O)(OCC)OCC` [TESP, triethyl succinyl phosphonate], for which, in data set [1], the decrease of purity is recorded as 4–6%.
On to `CCOC(=O)CCCC(=O)P(=O)(OCC)OCC` [TEGP, triethyl glutaryl phosphonate], for which the compound preserved result in data set [1] (setting [6]) is listed as “about 80%”. Also, in data set [1], the decrease of purity is on record as 4–6%.
As to `COC(=O)CCCCC(=O)P(=O)(OC)OC` [TMAP, trimethyl adipoyl phosphonate], the compound decomposed in data set [1] (setting [6]) was determined as 90%. Moreover, in data set [1], the decrease of purity was 4–6%.

B1: OGDH (Rattus norvegicus) (protein)
chain: SAPVAAEPFLSGTSSNYVEEMYCAWLENPKSVHKSWDIFFRNTNAGAPPGTAYQSPLSLSRSSLATMAHAQSLVEAQPNVDKLVEDHLAVQSLIRAYQIRGHHVAQLDPLGILDADLDSSVPADIISSTDKLGFYGLHESDLDKVFHLPTTTFIGGQEPALPLREIIRRLEMAYCQHIGVEFMFINDLEQCQWIRQKFETPGIMQFTNEEKRTLLARLVRSTRFEEFLQRKWSSEKRFGLEGCEVLIPALKTIIDMSSANGVDYVIMGMPHRGRLNVLANVIRKELEQIFCQFDSKLEAADEGSGDMKYHLGMYHRRINRVTDRNITLSLVANPSHLEAADPVVMGKTKAEQFYCGDTEGKKVMSILLHGDAAFAGQGIVYETFHLSDLPSYTTHGTVHVVVNNQIGFTTDPRMARSSPYPTDVARVVNAPIFHVNSDDPEAVMYVCKVAAEWRNTFHKDVVVDLVCYRRNGHNEMDEPMFTQPLMYKQIRKQKPVLQKYAELLVSQGVVNQPEYEEEISKYDKICEEAFTRSKDEKILHIKHWLDSPWPGFFTLDGQPRSMTCPSTGLEEDILTHIGNVASSVPVENFTIHGGLSRILKTRRELVTNRTVDWALAEYMAFGSLLKEGIHVRLSGQDVERGTFSHRHHVLHDQNVDKRTCIPMNHLWPNQAPYTVCNSSLSEYGVLGFELGFAMASPNALVLWEAQFGDFNNMAQCIIDQFICPGQAKWVRQNGIVLLLPHGMEGMGPEHSSARPERFLQMCNDDPDVLPNLQEENFDISQLYDCNWIVVNCSTPGNFFHVLRRQILLPFRKPLIVFTPKSLLRHPEARTSFDEMLPGTHFQRVIPEDGPAAQNPDKVKRLLFCTGKVYYDLTRERKARDMAEEVAITRIEQLSPFPFDLLLKEAQKYPNAELAWCQEEHKNQGYYDYVKPRLRTTIDRAKPVWYAGRDPAAAPATGNKKTHLTELQRFLDTAFDLDAFKKFS
notes: the tissue fractions with the complexes enriched to a degree allowing for a robust detection of the enzymatic activities, have been used; from tissue; host or cells: rat liver
Take B1: the Km stood at 550 ± 70 µM in data set [2], 450 ± 120 µM in data set [3], 450 ± 60 µM in data set [4] (other: heart preparation) and 270 ± 60 µM in data set [4] (other: liver preparation).

B2: OADH (Rattus norvegicus) (protein)
chain: MASATVAAAGRALRRAVPLLRRSYQTERGVYGYRPRKAGSGEPRGDRARPSVDHGLARLVTVYCEHGHKAAQINPLFPGQALLDTVPEIQALVQTLQGPFTTTGLLNMGKEEASLEEVLAYLNHIYCGPISIETAQLQSQEEKDWFARRFEELKKETFTTEERKHLSKLLLESQEFDHFLATKFATVKRYGGEGAESMMGFFHELLKLSAYGGITDIIIGMPHRGRLNLLTGLLQLPPELMFRKMRGLSEFPENVAAIGDVLSHLTSSVDLDFGAHRPLHVTMLPNPSHLEAINPVAVGKTRGRQQSQEDGDYSPNGSAQPGDKVICLQVHGDASFCGQGIVLETFTLSNLPHFRIGGSIHLIVNNQLGYTTPAERGRSSLYSSDIGKLVGCAIIHVNGDSPEEVVRATRLAFEYQRQFRKDVIIDLLCYRQWGHNELDEPFFTNPVMYKIIRARKSIPDTYAEHLIASGLMTQEEVSDIKASYYAKLNGHLANVAHYSPPAPHLQARWQGLVQPAACVTTWDTGVPLELLRFVGVKSVEVPEELQLHSHLLKMYVQSRMEKVKNGTNLDWATAETLALGSLLAQGFNVRLSGQDVGRGTFSQRHAMVVCQNTDDVYIPLNHMDPNQKGFLEVSNSPLSEEAVLGFEYGMSIESPKLLPLWEAQFGDFFNGAQIIFDTFISGGEAKWLLQSGLVILLPHGYDGAGPDHSSCRIERFLQMCDSAEEGVDSDTVNMFVVHPTTPAQYFHLLRRQMMRNFRKPLIVASPKMLLRYPVAVSTLEEMAPGTAFKPVIGDSSVDPKNVKTLIFCSGKHFYALLKQRESLGAKKRDFAIIRLEELCPFPLDSLQQEMGKYKHVQDIIWSQEEPQNMGPWSFVYPRFEKQLACKLRLVSRPPLPAPAVGIGTVHQQQHEAILFKTFTS
With B2, in data set [5], the Km is 8 ± 1 µM and 7.7 ± 0.8 µM.
